Assay results published in patent US12378261B2, “One-step, fast, 18F-19F isotopic exchange radiolabeling of difluoro-dioxaborinins and use of such compounds in treatment” (CORNELL UNIVERSITY, priority 2018, dated 2025).

Tests used:
[1] = 19F NMR solvolytic stability of difluoro-dioxaborinins in water/DMSO; assay type: physicochemical; conditions: for Fold increase in stability (90% → 10% H2O): 10% water/DMSO vs 90% water/DMSO; for times more resistant to solvolysis than DK-1: 50 M H2O
Method: Radioactive TLC and […]/^19F NMR studies were used to determine the solvolytic stability of difluoro-dioxaborinins.
(§1) Some difluoro-dioxaborinins are insoluble in water; therefore, solvolytic studies on these compounds were determined in 10% H2O/90% DMSO (5.55 M H2O, deionized). To relate the effect of water concentration to solvolysis, solvolytic studies on all water-soluble difluoro-dioxaborinins (DK-1, DK-2, DK-3, DK-6 and DK-15) were performed twice: once in 10% H2O/90% DMSO (5.55 M H2O) (FIG. 2A), and again in 90% H2O/10% DMSO (50 M H2O) (FIG. 2B). Studies performed in 50 M H2O reflect physiologically appropriate conditions, and allow comparison to literature aryl/alkyl trifluoroborate and dipyrromethene solvolytic stability measurements.^11, 14 Characterization in solutions with reduced water content, 5.55 M H2O, allows comparison of solvolytic rate constants to those of less-soluble difluoro-dioxaborinins. Difluorodioxaborinins solvolysis is not observed in pure (100%) DMSO.
The coefficient of determination (R^2) in all ^19F NMR solvolysis data closely follows single, 2 parameter exponential decay regression (f=a*exp(−k*x), R2 >0.99 in 88% of experiments).

[2] = Solubility in water (50 M H2O); assay type: physicochemical; conditions: 50 M H2O (90% H2O/10% DMSO)
Method: as §1
Solvolysis is promoted by extending difluorodioxaborinin π-conjugation using moderately electron poor or electron-neutral substituents (DK-13 and DK-14). To evaluate the effect of extending the difluoro-dioxaborinin 4,5,6 π-system on solvolysis, compounds that bear extended π-conjugation through the difluoro-dioxaborinin moiety (positions 4, 5, and 6) were synthesized. ^19F NMR solvolytic measurements were performed only in 5.55 M H2O, as DK-13 and DK-14 are insoluble in 50 M H2O.

[3] = Optical properties (absorbance, fluorescence emission, quantum yield); assay type: physicochemical; conditions: for Quantum yield: Methanol
[4] = system: sentinel nodes; conditions: non-targeted fluorescent contrasts, literature; cited from earlier work
[5] = system: MCF-7; assay: Inhibition of cell proliferation (IC50, MTS); assay type: cell-based
Method: (§2) As shown in FIGS. 11A-11E, cell viability as a function of Curcumin-BF2 concentration was evaluated for each of the cell lines in Example 5, showing the compounds of the present technology are effective in inhibiting cancer cell proliferation.

[6] = system: A549; assay: Inhibition of cell proliferation (IC50, MTS); assay type: cell-based
Method: as §2

[7] = system: HeLa; assay: Inhibition of cell proliferation (IC50, MTS); assay type: cell-based
Method: as §2

[8] = system: MDA-MB-231; assay: Inhibition of cell proliferation (IC50, MTS); assay type: cell-based
Method: as §2

[9] = system: HCT116; assay: Inhibition of cell proliferation (IC50, MTS); assay type: cell-based
Method: as §2

[10] = system: sentinel (popliteal) lymph node; assay: Sentinel lymph node fluorescence imaging (IVIS) and histology in mouse; assay type: in vivo
Method: FIGS. 3A-F: Sentinel lymph node imaging using [^18F]-6F-Cur-BF2 according to the working examples. […] Distal lymph nodes (lumbar, iliac lymph nodes^30) are not observed. […] A 200 μCi dose of [^18F]-6F-Cur-BF2 and Magnevist (MRI contrast agent) were injected into the right rear paw of […]. The injection site (bottom arrow) and sentinel lymph node (popliteal, upper arrows) are visible at 5 min. FIGS. 3D-3F show popliteal (sentinel) lymph node imaging 2 hours post injection into the back paw with a Pre-Clinical IVIS. Optical/Computed Tomography In Vivo Imaging System (Excitation filter centered at 430 nm and emission filter centered at 520 nm. Exposure time=1 s). […] White arrows in FIGS. 3D-3F indicate the lymph nodes.
FIG. 5 provides the histology of the collected lymph node from the mouse in FIG. 4A. The mouse lymph node was collected at 2 hours post injection into the right, rear footpad. The collected lymph node was frozen with OCT Gel and cut with a thickness of […]. The slice was, imaged with fluorescence microscope at the channel of 6F-Cur-BF2.
Applicant attempted sentinel lymph node imaging with [^18F]-6FCur-BF2 by fluorescence with 430 nm excitation and 520 nm emission filters. […] The collected lymph node is confirmed in histology.

| Structure (SMILES) | fold slower solvolysis (more stable) than DK-1 ([1]; 5.55 M H2O) | solubility in water [2] | Abs [3] [nm] | Em [3] [nm] | Extinction Coefficient [3] | Stokes Shift [3] [nm] | Quantum yield [3] [%] | Fold increase in stability (90% → 10% H2O) [1] | other results |
| --- | --- | --- | --- | --- | --- | --- | --- | --- | --- |
| CC1(C)C(/C=C/C=C/C=C/C=C2\N(CCCCS(=O)(=O)O)c3ccc4ccccc4c3C2(C)C)=[N+](CCCCS(=O)(=O)[O-])c2ccc3ccccc3c21 [indocyanine green] | – | – | – | – | – | – | – | – | behaviour in sentinel node mapping [4]: travel through sentinel nodes to delineate multiple non-sentinel nodes |
| F[B-]1(F)OC(c2ccccc2)=CC(c2ccccc2)=[O+]1 [DK-13] | 1.4 | insoluble | 363 | 413 | 38,000 cm^−1M^−1 | 50 | 11.2 | – | times more rapid solvolysis than DK-2 ([1]; 5.55 M H2O): 5.0 |
| COc1cc(/C=C/C2=CC(/C=C/c3ccc(O)c(OC)c3)=[O+][B-](F)(F)O2)ccc1O [Cur-BF2] | – | insoluble | 500 | 571 | 73,000 cm^−1M^−1 | – | – | – | IC50 ([5]; MCF-7, 24 h): 10 ± 4 µM; IC50 ([5]; MCF-7, 48 h): 4.8 ± 0.2 µM; IC50 ([6]; A549, 24 h): 27 ± 3 µM; IC50 ([6]; A549, 48 h): 5.5 ± 0.3 µM; IC50 ([7]; 24 h): 5.4 ± 0.4 µM; IC50 ([7]; 48 h): 4.2 ± 0.2 µM; IC50 ([8]; MDA-MB-231, 24 h): 11 ± 1 µM; IC50 ([8]; MDA-MB-231, 48 h): 6 ± 1 µM; IC50 ([9]; HCT116, 24 h): 3.31 ± 0.04 µM; IC50 ([9]; HCT116, 48 h): 4.3 ± 0.2 µM |
| COc1cc(/C=C/C(=O)CC(=O)/C=C/c2ccc(O)c(OC)c2)ccc1O [Curcumin, reference compound] | – | – | 434 | 535 | 56,500 cm^−1M^−1 | 101 | 2.4 | – | IC50 ([5]; Homo sapiens, MCF7, MCF-7, 24 h): 27 ± 8 µM; IC50 ([5]; Homo sapiens, MCF7, MCF-7, 48 h): 35 ± 3 µM; IC50 ([6]; Homo sapiens, A549, 24 h): 50 ± 4 µM; IC50 ([6]; Homo sapiens, A549, 48 h): 25 ± 1 µM; IC50 ([7]; Homo sapiens, 24 h): 16 ± 3 µM; IC50 ([7]; Homo sapiens, 48 h): 19 ± 6 µM; IC50 ([8]; Homo sapiens, MDA-MB-231, 24 h): 32 ± 13 µM; IC50 ([8]; Homo sapiens, MDA-MB-231, 48 h): 26 ± 6 µM; IC50 ([9]; Homo sapiens, HCT-116, HCT116, 24 h): 27 ± 5 µM; IC50 ([9]; Homo sapiens, HCT-116, HCT116, 48 h): 16 ± 2 µM |
| CCN(CC)c1ccc(C(=C2C=CC(=[N+](CC)CC)C=C2)c2cc(S(=O)(=O)[O-])ccc2S(=O)(=O)[O-])cc1.[Na+] [lymphazurin, isosulfan blue] | – | – | – | – | – | – | – | – | behaviour in sentinel node mapping [4]: travel through sentinel nodes to delineate multiple non-sentinel nodes |
| COc1ccc(C2=CC(c3ccc(OC)cc3)=[O+][B-](F)(F)O2)cc1 [DK-17] | 16 | insoluble | 408 | 438 | 63,600 cm^−1M^−1 | 30 | 65.8 | – | fold slower solvolysis than DK-2 ([1]; 5.55 M H2O): 2.3 |
| COc1cc(/C=C/C2=CC(/C=C/c3ccc(OC(=O)c4c(F)cc(F)cc4F)c(OC)c3)=[O+][B-](F)(F)O2)ccc1OC(=O)c1c(F)cc(F)cc1F [6F-Cur-BF2] | 1.6 | – | 430 | 512 | 50,800 cm^−1M^−1 | 82 | 3.0 | – | fold more rapid solvolysis than Cur-BF2 ([1]; 5.55 M H2O): 33; fluorescence in collected lymph node (histology) ([10]; mouse lymph node collected 2 hours post injection): observed in the lymph node; sentinel node visualization by fluorescence through the skin ([10]; mouse, 430 nm excitation, 520 nm emission filters, 2 hours post injection): the sentinel node is difficult to visualize through the skin |
| COc1cc(/C=C/C2=CC(/C=C/c3ccc(OC(=O)CCN4C(=O)C=CC4=O)c(OC)c3)=[O+][B-](F)(F)O2)ccc1OC(=O)CCN1C(=O)C=CC1=O [Cur-BF2-2Mal] | 2.1 | – | 434 | 509 | 54,000 cm^−1M^−1 | 75 | 3.1 | – | fold more rapid solvolysis than Cur-BF2 ([1]; 5.55 M H2O): 24 |

Further lines, with some results ahead:

| fold slower solvolysis (more stable) than DK-1 ([1]; 5.55 M H2O) | solubility in water [2] | Abs [3] [nm] | Em [3] [nm] | Extinction Coefficient [3] | Stokes Shift [3] [nm] | Quantum yield [3] [%] | Fold increase in stability (90% → 10% H2O) [1] | Structure (SMILES) | other results |
| --- | --- | --- | --- | --- | --- | --- | --- | --- | --- |
| 15 | insoluble | 400 | 439 | 62,000 cm^−1M^−1 | 39 | 67.3 | – | COc1ccc(C2=CC(c3ccc(C(C)(C)C)cc3)=[O+][B-](F)(F)O2)cc1 [DK-16] | fold slower solvolysis than DK-2 ([1]; 5.55 M H2O): 2.2 |
| – | water-soluble | 279 | 305 | 9,180 cm^−1M^−1 | 26 | – | ~2.8 | CC1=CC(C)=[O+][B-](F)(F)O1 [DK-1] | solvolysis rate constant, k ([1]; 50 M H2O (90% water, 10% DMSO)): 0.254 ± 0.002 h⁻¹; solvolysis in absence of water ([1]; 100% DMSO): not observed; fraction decomposed ([1]; […] (one fluoride-18 half-life), from rate constant at 50 M H2O): 37% |
| – | water-soluble | 301 | 307 | 12,600 cm^−1M^−1 | 6 | – | 4.7 | CCOC(=O)CCC1=C(C)O[B-](F)(F)[O+]=C1C [DK-6] | times more resistant to solvolysis than DK-1 [1]: 1.9 |
| – | water-soluble | 303 | 306 | 12,000 cm^−1M^−1 | 3 | – | 3.5 | CCC1=C(C)O[B-](F)(F)[O+]=C1C [DK-3] | times more resistant to solvolysis than DK-1 [1]: 5.6 |
| – | water-soluble | 303 | 307 | 12,200 cm^−1M^−1 | 4 | – | 3.2 | CC1=[O+][B-](F)(F)OC(C)=C1C [DK-2] | times more resistant to solvolysis than DK-1 [1]: 6.2 |
| – | water-soluble | 303 | 307 | 12,000 cm^−1M^−1 | 4 | – | 5.0 | CC1=C2CCCCC2=[O+][B-](F)(F)O1 [DK-15] | times more resistant to solvolysis than DK-1 [1]: 2.5 |
| – | insoluble | 325 | 328 | 19,800 cm^−1M^−1 | 3 | – | – | CC1=CC(c2ccccc2)=[O+][B-](F)(F)O1 [DK-14] | fold more rapid solvolysis than DK-1 ([1]; 5.55 M H2O): 1.7 |
